Where no end group is shown, it is not given here. [ ]: non-standard residue; d: D form.
Tests used:
[1] = system: 3T3-L1 mouse adipocytes; test: Lipolytic activity: glycerol release in differentiated 3T3-L1 mouse adipocytes (12 h); type: cell-based; conditions: 3T3-L1 mouse adipocytes, 12 h
Procedure: JCRB9014-A) from Tebu-Bio (Tebu-bio, Barcelona, Spain). Briefly, mouse adipocytes (3T3-L1 cells) were cultured in 48 well plates as described previously (Saez-Lopez et al., 2020). Adipocytes were differentiated using cell culture reagents purchased from Tebu-Bio and following the manufacturer's instructions. At day of differentiation cells were treated in duplicates with vehicle (DMSO), Caffeine (100 μg/ml), and each of the peptides at the specified doses in Table 6a below. At the end of the experiment (12 h), supernatants were collected and glycerol content was measured using a Glycerol Assay Kit (Sigma) following manufacturer's instructions.

[2] = system: human subcutaneoous mature adipocytes; test: Lipolytic activity: glycerol release in human adipocytes (Lipolysis Assay kit); type: cell-based; conditions: human subcutaneous mature adipocytes

Substance | Lipolysis Activity measured as Glycerol (μM) release in media ([1]; 1 μg/ml) [µM] | Lipolysis Activity measured as Glycerol (μM) release in media ([1]; 10 μg/ml) [µM] | Lipolysis Activity measured as Glycerol (μM) release in media ([1]; 100 μg/ml) [µM] | Lipolysis Activity measured as Glycerol (μM) release in media ([2]; 25 μg/ml) [µM] | Lipolysis Activity measured as Glycerol (μM) release in media ([2]; 50 μg/ml) [µM] | Lipolysis Activity measured as Glycerol (μM) release in media ([2]; 75 μg/ml) [µM] | Lipolysis Activity measured as Glycerol (μM) release in media ([2]; 100 μg/ml) [µM]
Ac-TWDPEGVIFY (Ac-[dT][dW][dD][dP][dE]G[dV][dI][dF][dY]) [GP3D-Ac, N-term CH3CONH, C-term COOH] | 354 | 388 | 498 | 16.56 | 36.41 | 43.36 | 58.41
DPEGLFY (H-[dD][dP][dE]G[dL][dF][dY]-OH; SMILES CC(C)C[C@@H](NC(=O)CNC(=O)[C@@H](CCC(=O)O)NC(=O)[C@H]1CCCN1C(=O)[C@H](N)CC(=O)O)C(=O)N[C@H](Cc1ccccc1)C(=O)N[C@H](Cc1ccc(O)cc1)C(=O)O) [GP3D-DM2, N-term NH2, C-term COOH] | 303 | – | – | 15.77 | 34.83 | 48.40 | 52.24
DPEGVI (H-[dD][dP][dE]G[dV][dI]-OH; SMILES CC[C@@H](C)[C@@H](NC(=O)[C@H](NC(=O)CNC(=O)[C@@H](CCC(=O)O)NC(=O)[C@H]1CCCN1C(=O)[C@H](N)CC(=O)O)C(C)C)C(=O)O) [GP3D-6 I II IX X, N-term NH2, C-term COOH] | 326 | 300 | 368 | 17.01 | 40.79 | 43.36 | 53.13
DPEGVIF (H-[dD][dP][dE]G[dV][dI][dF]-OH; SMILES CC[C@@H](C)[C@@H](NC(=O)[C@H](NC(=O)CNC(=O)[C@@H](CCC(=O)O)NC(=O)[C@H]1CCCN1C(=O)[C@H](N)CC(=O)O)C(C)C)C(=O)N[C@H](Cc1ccccc1)C(=O)O) [GP3D-7 I II X, N-term NH2, C-term COOH] | 391 | 405 | 313 | 17.04 | 34.80 | 48.09 | 58.31
DPEGVIFY (H-[dD][dP][dE]G[dV][dI][dF][dY]-OH; not fully specified) [GP3D-8 I II, N-term NH2, C-term COOH] | 401 | 474 | 468 | – | – | – | –
DPEGVLY (H-[dD][dP][dE]G[dV][dL][dY]-OH; SMILES CC(C)C[C@@H](NC(=O)[C@H](NC(=O)CNC(=O)[C@@H](CCC(=O)O)NC(=O)[C@H]1CCCN1C(=O)[C@H](N)CC(=O)O)C(C)C)C(=O)N[C@H](Cc1ccc(O)cc1)C(=O)O) [GP3D-DM3, N-term NH2, C-term COOH] | – | – | 307 | – | – | – | –
TDPEGVIF (H-[dT][dD][dP][dE]G[dV][dI][dF]-OH; not fully specified) [GP3D-8 II X, N-term NH2, C-term COOH] | 391 | 434 | 493 | – | – | – | –
TDPEGVIFY (H-[dT][dD][dP][dE]G[dV][dI][dF][dY]-OH; not fully specified) [GP3D-9 II, N-term NH2, C-term COOH] | – | – | 315 | – | – | – | –
TDPEGVIY (H-[dT][dD][dP][dE]G[dV][dI][dY]-OH; not fully specified) [GP3D-8 II IX, N-term NH2, C-term COOH] | 557 | 508 | 370 | – | – | – | –
TWDPEG (H-[dT][dW][dD][dP][dE]G-OH; SMILES C[C@H](O)[C@@H](N)C(=O)N[C@H](Cc1c[nH]c2ccccc12)C(=O)N[C@H](CC(=O)O)C(=O)N1CCC[C@@H]1C(=O)N[C@H](CCC(=O)O)C(=O)NCC(=O)O) [GP3D-6 VII VIII IX X, N-term NH2, C-term COOH] | 404 | 327 | – | – | – | – | –
TWDPEGIFY (H-[dT][dW][dD][dP][dE]G[dI][dF][dY]-OH; not fully specified) [GP3D-9 VII, N-term NH2, C-term COOH] | – | – | 354 | – | – | – | –
TWDPEGVI (H-[dT][dW][dD][dP][dE]G[dV][dI]-OH; not fully specified) [GP3D-8 IX X, N-term NH2, C-term COOH] | 396 | 383 | 528 | – | – | – | –
TWDPEGVIF (H-[dT][dW][dD][dP][dE]G[dV][dI][dF]-OH; not fully specified) [GP3D-9 X, N-term NH2, C-term COOH] | – | – | 493 | – | – | – | –
TWDPEGVIFY [GP3D-NH2] ([dT][dW][dD][dP][dE]G[dV][dI][dF][dY]-NH2; N-terminus assumed; SMILES CC[C@@H](C)[C@@H](NC(=O)[C@H](NC(=O)CNC(=O)[C@@H](CCC(=O)O)NC(=O)[C@H]1CCCN1C(=O)[C@@H](CC(=O)O)NC(=O)[C@@H](Cc1c[nH]c2ccccc12)NC(=O)[C@H](N)[C@H](C)O)C(C)C)C(=O)N[C@H](Cc1ccccc1)C(=O)N[C@H](Cc1ccc(O)cc1)C(N)=O) [N-term NH2, C-term CONH2] | 506 | 449 | 368 | – | – | – | –
TWDPEGVIY (H-[dT][dW][dD][dP][dE]G[dV][dI][dY]-OH; not fully specified) [GP3D-9 IX, N-term NH2, C-term COOH] | – | – | 356 | – | – | – | –
TWDPEVIFY (H-[dT][dW][dD][dP][dE][dV][dI][dF][dY]-OH; not fully specified) [GP3D-9 VI, N-term NH2, C-term COOH] | – | – | 315 | – | – | – | –
TWDPGVIFY (H-[dT][dW][dD][dP]G[dV][dI][dF][dY]-OH; not fully specified) [GP3D-9 V, N-term NH2, C-term COOH] | – | – | 394 | – | – | – | –
TWPEGVIFY (H-[dT][dW][dP][dE]G[dV][dI][dF][dY]-OH; not fully specified) [GP3D-9 III, N-term NH2, C-term COOH] | – | – | 346 | – | – | – | –
WDNEGLY (H-[dW][dD][dN][dE]G[dL][dY]-OH; SMILES CC(C)C[C@@H](NC(=O)CNC(=O)[C@@H](CCC(=O)O)NC(=O)[C@@H](CC(N)=O)NC(=O)[C@@H](CC(=O)O)NC(=O)[C@H](N)Cc1c[nH]c2ccccc12)C(=O)N[C@H](Cc1ccc(O)cc1)C(=O)O) [GP3D-DM4, N-term NH2, C-term COOH] | 469 | 416 | 309 | – | – | – | –
WDPEG (H-[dW][dD][dP][dE]G-OH; SMILES N[C@H](Cc1c[nH]c2ccccc12)C(=O)N[C@H](CC(=O)O)C(=O)N1CCC[C@@H]1C(=O)N[C@H](CCC(=O)O)C(=O)NCC(=O)O) [GP3D-5 I VII VIII IX X, N-term NH2, C-term COOH] | 368 | 349 | 398 | – | – | – | –
WDPEGVIF (H-[dW][dD][dP][dE]G[dV]I[dF]-OH; not fully specified (residue 7)) [GP3D-8 I X, N-term NH2, C-term COOH] | 616 | 465 | 441 | – | – | – | –
WDPEGVIFY (H-[dW][dD][dP][dE]G[dV]I[dF][dY]-OH; not fully specified (residue 7)) [GP3D-9 I, N-term NH2, C-term COOH] | – | – | 344 | – | – | – | –
WDPEGVIY (H-[dW][dD][dP][dE]G[dV]I[dY]-OH; not fully specified (residue 7)) [GP3D-8 I IX, N-term NH2, C-term COOH] | 452 | 426 | 588 | – | – | – | –
WDPEGVY (H-[dW][dD][dP][dE]G[dV][dY]-OH; SMILES CC(C)[C@@H](NC(=O)CNC(=O)[C@@H](CCC(=O)O)NC(=O)[C@H]1CCCN1C(=O)[C@@H](CC(=O)O)NC(=O)[C@H](N)Cc1c[nH]c2ccccc12)C(=O)N[C@H](Cc1ccc(O)cc1)C(=O)O) [GP3D-7 I VIII IX, N-term NH2, C-term COOH] | – | 314 | – | – | – | – | –

From patent US20250154197A1, “LIPOLYTIC PEPTIDES” (FUNDACIÓ HOSPITAL UNIVERSITARI VALL D'HEBRON - INSTITUT DE …, priority 2021, published 2025)
